We go through three compounds from patent publication US20210260010A1, “COMPOSITIONS AND METHODS FOR THE REDUCTION OR TREATMENT OF INFLAMMATION” (AXCELLA HEALTH INC., priority 2018, published 2021).

Format in all cases: cell-based
Experiment [1] has as its system IL-6. Kind of experiment: IL-6 cytokine secretion by TNFα-stimulated primary human hepatic stellate cells (ELISA). The conditions noted are these: for IL-6 cytokine secretion, per-cell normalized, fold change from plasma amino acid background: primary human hepatic stellate cells, two donors, TNFα 3 ng/mL, 12 hours. The protocol:
(§1) Primary human hepatic stellate cells were obtained from Samsara Sciences and grown in Complete HSC Medium to […] confluence in T75 or T150 flasks below passage 10 were seeded into 96-well plates and incubated for 6 hours at 37° C., 5% CO2 in a humidified incubator. After 6 hours, plates were removed from the incubator washed with DPBS and pretreated (±single amino acid dropout, ±supplemental amino acid dose; see experiment for medium composition) overnight, ˜14-15 hours. After overnight pretreatment, the medium was removed from the cells, and the same pretreatment medium, now supplemented with 3 ng/mL TNFα was applied. Plates were incubated for 12 hours at 37° C., 5% CO2. After 12 hour stimulus with TNFα, supernatant was removed and frozen at −80° C. in two separate aliquots. Plates were washed and incubated with CCK-8 viability reagent (Dojindo) for 1 hour. Viability was measured on the Synergy plate reader. Immediately, the medium was removed and the plates were fixed for immunofluorescence staining.
(§2) Human CCL2/MCP1 and Human IL-6 were measured by ELISA (Human […] DuoSet ELISA, R&D Systems; Human IL-6 DuoSet ELISA, R&D Systems) at ⅕ and 1/20 dilution in 1× Reagent Diluent (Reagent Ancillary Kit 2, R&D Systems). Data were normalized to the specific per well cell density determined by Hoechst stained nuclei count.
Tables 39-42 show per-cell normalized IL-6 cytokine secretion in primary human hepatic stellate cells from two donors as a fold change from the plasma amino acid background. Statistical significance calculated by one-way ANOVA with Dunnett's multiple comparison test within each treatment group.

The subject of experiment [2] is MCP1/CCL2. Kind of experiment: MCP1/CCL2 secretion by primary human hepatocytes exposed to free fatty acids and TNF-α (ELISA). The conditions noted are these: for MCP1 expression relative to Control- Donor 1, Mean: donor 1 hepatocytes; for MCP1 expression relative to Control- Donor 1, Mean / MCP1 expression relative to Control- Donor 2, Mean: FFA + TNF-α, baseline subtracted; for MCP1 expression relative to Control- Donor 2, Mean: donor 2 hepatocytes; for MCP1/CCL2 secretion (baseline subtracted): primary human hepatocytes from two healthy donors, FFA 250 uM + TNF-α 1 ng/ml. As for the experimental part: Hepatocyte lipotoxicity appears to be a central driver of hepatic cellular injury via oxidative stress and endoplasmic reticulum (ER) stress. The ability of amino acids to influence steatosis (lipid accumulation) and inflammation in hepatocytes was assessed using human primary hepatocytes (Lonza, TRL).
Primary hepatocytes lot nos. from two healthy human donors were seeded on day 0 at density of 6e04 cells in 96 well optical microplates (Thermofisher) in hepatocyte plating media (William's E medium (Gibco) supplemented with 10% heat-inactivated FBS (Atlanta Bio), 2 mM Glutamax (Gibco) and 0.2% Primocin (InVivoGen) and incubated for 6 hours at 37° C., 5% CO2. After 6 hours, cells were washed twice and incubated overnight at 37° C., 5% CO2 with Hepatocytes defined medium (Corning) supplemented with 2 mM Glutamax (Gibco) and 1× Penicillin/Streptomycin. On day 1, cells were washed twice and incubated for 24 h in the hepatocyte culture media in the same conditions described above.
On day 2, cells were washed twice with DPBS 1× (Gibco) and maintained in amino acid-free WEM (US Biologicals) containing a defined custom amino acid concentration based on the mean physiological concentrations in blood. The values are published in the Human Metabolome Database (Wishart D S, Tzur D, Knox C, et al., HMDB: the Human Metabolome Database. Nucleic Acids Res. January 2007; 35(Database issue):D521-6. 17202168; which is hereby incorporated by reference in its entirety). This custom media is supplemented with 11 mM Glucose, 0.272 mM Sodium Pyruvate, and a dose curve of defined amino acid compositions (i.e., vehicle, LIVRQ+N-acetylcysteine, LIVRQ, RQ+N-acetylcysteine, N-acetylcysteine alone, LIV, or individually with L-Leucine, L-Isoleucine, L-Valine, L-Arginine, L-Glutamine, and L-Cysteine) at various ranges of concentrations. Cells were maintained in this defined media for 24 hours at 37° C., 5% CO2.
After pre-treatment, cells were exposed to free fatty acids (FFA) at 250 uM with a ratio of 2:1 (Oleate:Palmitate) supplemented with TNF-α (Thermofisher) at 1 ng/ml or vehicle. Cells were incubated with the FFAs mixture and the different amino acids combinations for 24 hours at 37° C., 5% CO2. After 24 hours incubation, media was removed for cytokine analysis and replaced by fresh media containing the same stimulus conditions and amino acid concentrations. Cells were incubated for an additional 48 hours for a total of 72 hours of FFA and TNFα stimulation.
Human CCL2 (MCP-1) was measured by ELISA (Human […] DuoSet ELISA, R&D Systems) at ⅕ or 1/10 dilution in 1× Reagent Diluent (Reagent Ancillary Kit 2, R&D Systems). Data were normalized to the specific per well cell density determined by nuclei count stained by Hoechst 3342 (Life technologies) in the fluorescence microscopy described below.

Experiment [3] concerns MCP-1. Description: MCP-1 chemokine secretion by TNFα-stimulated primary human hepatic stellate cells (ELISA). The conditions noted are these: for MCP-1 chemokine secretion, per-cell normalized, fold change from plasma amino acid background: primary human hepatic stellate cells, two donors, TNFα 3 ng/mL, 12 hours. The protocol: as §1, §2
Tables 35-38 show per-cell normalized MCP-1 chemokine secretion in primary human hepatic stellate cells from two donors as a fold change from the plasma amino acid background. Statistical significance calculated by one-way ANOVA with Dunnett's multiple comparison test within each treatment group.

Setting [4] is: Conc. 109 μM (baseline comparator).
Where [5] appears, read: Conc. 749 μM (baseline comparator).
Where [6] appears, read: Conc. 66 μM (baseline comparator).

On to `N=C(N)NCCC[C@H](N)C(=O)O` [Arginine, L-Arginine], for which the “Fold Change IL-6 Secretion Normalized Per Cell” value in experiment [1] (donor 1, Conc. 109 μM (plasma background, reference)) was found to be 1.0000; in experiment [1] (donor 1, Conc. 1088 μM) it was 0.9828; in experiment [1] (donor 1, Conc. 2720 μM) it was 1.0231; in experiment [1] (donor 1, Conc. 5440 μM) it was 0.7776; in experiment [1] (donor 2, Conc. 109 μM (plasma background, reference)), 1.0000; in experiment [1] (donor 2, Conc. 1088 μM), 0.9924. Further, the “Fold Change IL-6 Secretion Normalized Per Cell” value in experiment [1] (donor 2, Conc. 2720 μM) came to 0.9401; in experiment [1] (donor 2, Conc. 5440 μM), 0.8895. Further, in experiment [1], the “IL-6 cytokine secretion, per-cell normalized, fold change from plasma amino acid background” value is given as “no significant effect”. In addition, the “MCP1 expression relative to Control- Donor 1, Mean” value in experiment [2] (setting [4]) is reported as 2.37E−15; in experiment [2] (Conc. 1088 μM) it was 5.114; in experiment [2] (Conc. 2720 μM), 6.527; in experiment [2] (Conc. 5440 μM), 10.9386. Moreover, the “MCP1 expression relative to Control- Donor 2, Mean” value in experiment [2] (setting [4]) was −4.7E−15; in experiment [2] (Conc. 1088 μM), 24.95; in experiment [2] (Conc. 2720 μM) it was 24.06; in experiment [2] (Conc. 5440 μM) it was 8.494. In addition, the “MCP1/CCL2 secretion (baseline subtracted)” value (from here on “MCP1/CCL2 secretion”) in experiment [2] was “increased”. In addition, the “Fold Change MCP1 Secretion Normalized Per Cell” value in experiment [3] (donor 3, Conc. 109 μM (plasma background, reference)) is given as 1.0000; in experiment [3] (donor 3, Conc. 1088 μM), 0.9435; in experiment [3] (donor 3, Conc. 2720 μM), 0.8821; in experiment [3] (donor 3, Conc. 5440 μM) it was 0.7840; in experiment [3] (donor 4, Conc. 109 μM (plasma background, reference)) it was 1.0000; in experiment [3] (donor 4, Conc. 1088 μM), 1.0453. For the same compound, the “Fold Change MCP1 Secretion Normalized Per Cell” value amounted to 1.0446 in experiment [3] (donor 4, Conc. 2720 μM) and 0.9456 in experiment [3] (donor 4, Conc. 5440 μM). Further, the “MCP-1 chemokine secretion, per-cell normalized, fold change from plasma amino acid background” value in experiment [3] is listed as “no significant impact”.

For `NC(=O)CC[C@H](N)C(=O)O` [Glutamine, L-Glutamine], the “Fold Change IL-6 Secretion Normalized Per Cell” value in experiment [1] (donor 1, Conc. 562 μM (plasma background, reference)) was found to be 1.0000; in experiment [1] (donor 2, Conc. 562 μM (plasma background, reference)), 1.0000; in experiment [1] (donor 2, Conc. 3747 μM), 0.7100. In experiment [1], the “IL-6 cytokine secretion, per-cell normalized, fold change from plasma amino acid background” value is reported as “significantly reduced”. Moreover, the “MCP1 expression relative to Control- Donor 1, Mean” value in experiment [2] (setting [5]) is given as 0; in experiment [2] (Conc. 3747 μM) it was −0.8981; in experiment [2] (Conc. 11242 μM), −9.001; in experiment [2] (Conc. 22484 μM), −21.8392. Besides, the “MCP1 expression relative to Control- Donor 2, Mean” value in experiment [2] (setting [5]) is 2.84E−14; in experiment [2] (Conc. 3747 μM), −45.0574; in experiment [2] (Conc. 11242 μM) it was −90.6558; in experiment [2] (Conc. 22484 μM), −138.873. The “MCP1/CCL2 secretion” value in experiment [2] is reported as “significantly decrease”. The “Fold Change MCP1 Secretion Normalized Per Cell” value in experiment [3] (donor 3, Conc. 562 μM (plasma background, reference)) is 1.0000; in experiment [3] (donor 3, Conc. 749 μM), 0.7048; in experiment [3] (donor 3, Conc. 3747 μM), 0.6036; in experiment [3] (donor 3, Conc. 11242 μM), 0.6106; in experiment [3] (donor 3, Conc. 22484 μM), 0.6212; in experiment [3] (donor 4, Conc. 562 μM (plasma background, reference)), 1.0000. In addition, in experiment [3], the “MCP-1 chemokine secretion, per-cell normalized, fold change from plasma amino acid background” value is reported as “reduced MCP1 secretion in both donors but was only statistically significant in one of two donors”.

For the compound `CC[C@H](C)[C@H](N)C(=O)O` [Isoleucine, L-Isoleucine], the “Fold Change IL-6 Secretion Normalized Per Cell” value in experiment [1] (donor 1, Conc. 66 μM (plasma background, reference)) was 1.0000; in experiment [1] (donor 2, Conc. 66 μM (plasma background, reference)), 1.0000. Further, the “IL-6 cytokine secretion, per-cell normalized, fold change from plasma amino acid background” value in experiment [1] is “no significant effect”. Moreover, the “MCP1 expression relative to Control- Donor 1, Mean” value in experiment [2] (setting [6]) was −1.2E−15; in experiment [2] (Conc. 1328 μM) it was −0.3073; in experiment [2] (Conc. 3320 μM) it was −2.417; in experiment [2] (Conc. 6639 μM) it was −0.205. Also, the “MCP1 expression relative to Control- Donor 2, Mean” value is on record as 0 in experiment [2] (setting [6]), 26.62 in experiment [2] (Conc. 1328 μM), −5.645 in experiment [2] (Conc. 3320 μM) and 18.62 in experiment [2] (Conc. 6639 μM). The “MCP1/CCL2 secretion” value in experiment [2] is on record as “did not have an effect”. Also, the “Fold Change MCP1 Secretion Normalized Per Cell” value came out at 1.0000 in experiment [3] (donor 3, Conc. 66 μM (plasma background, reference)); 1.5550 in experiment [3] (donor 3, Conc. 1328 μM); 1.2169 in experiment [3] (donor 3, Conc. 3320 μM); 1.2084 in experiment [3] (donor 3, Conc. 6639 μM); 1.0000 in experiment [3] (donor 4, Conc. 66 μM (plasma background, reference)).
